Test results published in publication PMC7328663, “Agonist-specific desensitization of PGE2-stimulated cAMP signaling due to upregulated phosphodiesterase expression in human lung fibroblasts” (Naunyn-Schmiedeberg's archives of pharmacology, 2019).
Several values for one entry are separate records, joined by “and”; a condition that tells them apart may be missing. Equal values may be shown once.

Tests used:
[1] = system: HFL-1 cells; experiment: cADDis assay for cAMP (fluorescent biosensor) in HFL-1 fibroblasts; format: cell-based, human; details: for leftward shift of PGE2 concentration-response curve (reversal of desensitization) by PDE inhibitor: 10 μM inhibitor, 10 min, Fig. 7a–c; for desensitization of β-AR (isoproterenol) cAMP responses by pretreatment: 24 h pretreatment with 100 nM PGE2 or 100 nM isoproterenol, Fig. 1d; for desensitization of PGE2 cAMP responses by pretreatment: 24 h pretreatment with 100 nM isoproterenol or 1 μM forskolin, Fig. 2a, Fig. 3; for EC50: Homo sapiens, HFL1; for rightward shift of PGE2 responses induced by pretreatment: 24 h pretreatment with 100 nM of the agonist vs vehicle, Fig. 5b, n = 4; for PGE2 maximal response: normalized to 1 μM forskolin plus 200 μM IBMX, Fig. 4 experiments
Experimental: HFL-1 fibroblasts (ATCC, Manassas, VA, USA) were grown in Ham’s F12K medium (Thermo Fisher Scientific, Waltham, MA, USA) with 10% fetal bovine serum (Atlanta Biologicals, Flowery Branch, GA, USA) and 1% antibiotic-antimycotic solution. Cells with a passage number of 13 to 25 were used and were grown to 70–90% confluency for all studies. Cells were grown in an incubator at 37 °C and 5% CO2 levels. Medium was aspirated and cells were washed once with PBS. After aspiration of PBS, 5 mL of 0.25% trypsin-EDTA (Thermo Fisher Scientific, Waltham, MA, USA) was added for 5 min to induce cell detachment. Media was added to the flask and gently mixed to suspend detached cells, transferred to tubes, centrifuged at 500g for 5 min, then washed to remove trypsin. The cell pellet was resuspended in growth medium, and approximately 9000 sells were plated per well on 96-well plates. Cells were pretreated with PGE2, other drugs, or vehicle prior to experiments by adding 10× concentration of drug to growth media. Medium was aspirated after 24 h, and each well was washed once with warm Dulbecco’s phosphate-buffered saline before performing cADDis assay for cAMP.
The cADDis assay was purchased from Montana Molecular (Bozeman, MT, USA). HFL-1 cells were incubated with a recombinant mammalianized baculovirus (BacMam) engineered to express a genetically modified protein that is a fusion of EPAC, a cAMP effector, with the green fluorescent protein (GFP). This protein serves as a convenient and quantitative cAMP sensor. In its unbound form, the protein fluoresces, but its fluorescence is quenched upon binding of cAMP. When seeding the cells in a 96-well plate, the following components were added: […] of cells plus media, 40 μL BacMam solution, and 2 μL of trichostatin A (an inhibitor of histone deacetylase) (Sigma®, St. Louis, MO, USA). In the 96-well plate format, approximately 8900 cells were seeded per well and 2.95 × 10^8 viral particles per well were added. Trichostatin A stock concentration was 100 μM, giving a final concentration of 1 μM in the final volume of 200 μL per well. Transduced HFL-1 cells were incubated for 24 h at 37 °C and 5% CO2 levels. After incubation, medium was aspirated and replaced with 180 μL per well of 1× Dulbecco’s phosphate-buffered saline without calcium and magnesium (Thermo Fisher Scientific, Waltham, MA, USA). The 96-well plate was then covered with aluminum foil and incubated at 37 °C for 30 min. The plate was placed in a SpectraMax M5 plate reader (Molecular Devices, San Jose, CA, USA), and fluorescence was read from the bottom of the plate with an excitation wavelength of 494 nm and an emission wavelength of 522 nm for 5 min. Once variability of fluorescence was ≤ 5% in all wells, different concentrations ofPGE2 or other agents were added with a multi-pipette and the changes in fluorescence were measured every 30 s for 30 min.
Data from kinetic studies of fluorescence were normalized to the original level of fluorescence (ΔF/F0) and then fit to a single-site decay model using GraphPad Prism 7.0 (GraphPad Software Inc., San Diego, CA, USA). The plateau of each decay curve was then used as the maximal response to that given concentration of drug (Emax), and concentration-response curves were generated using nonlinear regression analysis (log [agonist] vs. response, variable slope, four parameters) using GraphPad Prism 7.0. Concentration-response curves in multiple conditions were compared using two-way analysis of variance (2-way ANOVA) with Tukey’s multiple comparison test, and significance (p value) is reported for the effect of different conditions. Statistical comparison tests (t tests, 1-way and 2-way ANOVA) were performed using GraphPad Prism.

[2] = system: PDE3A; experiment: qRT-PCR of PDE3A mRNA after 24 h pretreatment; format: cell-based, human; details: 24 h pretreatment: 1 μM forskolin, 100 nM isoproterenol or 100 nM PGE2; Fig. 6a
Experimental: (§1) After 48-h incubation with the lentivirus, medium was aspirated, cells were washed once in 1× PBS, and buffer RLT was added to disrupt cell membranes. Cells were collected and RNA was isolated using RNeasy columns with a QIAcube robot (Qiagen). RNA was quantified using the NanoDrop 2000/2000c (Thermo Fisher). Reverse transcription was performed on 400 ng of RNA samples. All steps followed the SuperScript® III First-Strand Synthesis System for RT-PCR protocol (Thermo Fisher). The steps included a denaturation step at 65 °C for 5 min in the RNA/primer mixture, containing 50 ng/μL of random hexamers. Complementary DNA (cDNA) synthesis mixture was added to the RNA/primer mixture and incubated for 10 min at 25 °C, followed by 50 min at 50 °C. The reaction was terminated at 85 °C for 5 min, then chilled on ice. Finally, 1 μL of RNase H was added to each tube followed by incubation for 20 min at 37 °C. cDNA samples were either used immediately for quantitative reverse transcription polymerase chain reaction (qRT-PCR) experiments or stored at − 20 °C.
(§2) TaqMan® Gene Expression Assays (Thermo Fisher) were used for qRT-PCR reactions. The ratio of components for each reaction was as follows: 1 μL 20× TaqMan® Gene Expression Assay, 10 μL 2× TaqMan® Gene Expression Mater Mix, 4 μL cDNA (1 ng to 100 ng), and 5 μL of RNase-free water. The thermal cycler settings were as follows: step 1, 50 °C for 2 min; step 2, 95 °C for 10 min; step 3, 95 °C for 15 s; and step 4, 60 °C for 1 min. Steps 3 and 4 were repeated for a total of 40 cycles. The housekeeping genes GAPDH, β-actin, and CDKN1A were used to normalize for differences in RNA samples. PCR data were analyzed using the 2^[−ΔΔCt] method, where Ct is the cycle threshold.

[3] = system: PDE3B; experiment: qRT-PCR of PDE3B mRNA after 24 h pretreatment; format: cell-based, human; details: 24 h pretreatment: 1 μM forskolin, 100 nM isoproterenol or 100 nM PGE2; Fig. 6a
Experimental: as §1, §2

[4] = system: PDE4B; experiment: qRT-PCR of PDE4B mRNA after 24 h pretreatment; format: cell-based, human; details: 24 h pretreatment: 1 μM forskolin, 100 nM isoproterenol or 100 nM PGE2; Fig. 6a
Experimental: as §1, §2

[5] = system: PDE4D; experiment: qRT-PCR of PDE4D mRNA after 24 h pretreatment; format: cell-based, human; details: 24 h pretreatment: 1 μM forskolin, 100 nM isoproterenol or 100 nM PGE2; Fig. 6a
Experimental: as §1, §2

[6] = system: PDE; experiment: PDE activity assays in HFL-1 cell lysates ([3H]cAMP hydrolysis); format: biochemical, human; details: for bulk PDE activity vs vehicle: cells treated 24 h with 30 μM forskolin, 100 nM PGE2 or 1 μM isoproterenol, Fig. 6c; for PDE activity in lysates in presence of inhibitor: roflumilast 1 μM or IBMX 1 mM in the assay, vehicle-, PGE2- and isoproterenol-pretreated cells, Fig. 6d
[7] = system: HFL-1 cells; experiment: Assay of basal cAMP (EIA of TCA extracts); format: cell-based, human; details: cells pretreated with 100 nM PGE2 for 24 h; not significant vs vehicle (p = 0.815)
Experimental: HFL-1 cells were washed three times with serum- and NaHCO3-free DMEM supplemented with 20 mM HEPES, pH 7.4 (DMEH), then incubated for 30 min at 37 °C. Medium was aspirated, and 250 μL of trichloroacetic acid (TCA, 7.5% w/v) was added to each well. cAMP content in TCA extracts was determined by EIA (Cayman Chemical) following the manufacturer’s instructions. The amount of cAMP was normalized to the amount of protein per sample as determined using a dye-binding protein assay (Bio-Rad).

[8] = system: EP2R; experiment: qRT-PCR of EP2R mRNA after 24 h pretreatment; format: cell-based, human; details: 24-h pretreatment with 100 nM PGE2; Fig. 6a
Experimental: TaqMan® Gene Expression Assays (Thermo Fisher) were used for qRT-PCR reactions. […] PCR data were analyzed using the 2^[−ΔΔCt] method, where Ct is the cycle threshold.

[9] = cells pretreated with 100 nM PGE2 for 24 h
[10] = acute cAMP increase, no pretreatment, Fig. 5a

SMILES: O=C1CCc2cc(OCCCCc3nnnn3C3CCCCC3)ccc2N1 [cilostazol]
- leftward shift of PGE2 concentration-response curve (reversal of desensitization) by PDE inhibitor [1, 9]: had no effect

SMILES: CC(C)NCC(O)c1ccc(O)c(O)c1 (stereo not drawn) [isoproterenol]
- desensitization of β-AR (isoproterenol) cAMP responses by pretreatment ([1]; Fig. 2b): induces desensitization of β-AR responses
- desensitization of PGE2 cAMP responses by pretreatment [1]: does not decrease responses to PGE2
- EC50 ([1]; acute isoproterenol cAMP response, 24 h pretreatment with 100 nM isoproterenol, Fig. 2b): 2.24 nM
- PDE3A mRNA expression, fold change over vehicle [2]: no effect
- PDE3B mRNA expression [3]: Significant upregulation
- PDE4B mRNA expression, fold change over vehicle [4]: 1.3 fold
- PDE4D mRNA expression, fold change over vehicle [5]: 5.0 fold
- bulk PDE activity vs vehicle [6]: does not

SMILES: CCOc1c2c(c(OCC)c3ccccc13)C(=O)N(c1ccc(CC(=O)NS(=O)(=O)c3ccccc3)cc1)C2 [GW-627368X]
- shift of PGE2 concentration-response curve by antagonist ([1]; antagonist 100 nM, cells pretreated with 100 nM PGE2 for 24 h, Fig. 4): did not
- rightward shift of PGE2 concentration-response curve by antagonist ([1]; antagonist 100 nM, vehicle-pretreated cells): did not cause a rightward shift

SMILES: C=C[C@@]1(C)CC(=O)[C@]2(O)[C@@]3(C)[C@@H](O)CCC(C)(C)[C@@H]3[C@H](O)[C@H](OC(C)=O)[C@@]2(C)O1 [forskolin]
- desensitization of PGE2 cAMP responses by pretreatment [1]: did not cause desensitization of PGE2 responses
- PDE3A mRNA expression, fold change over vehicle [2]: no effect
- PDE3B mRNA expression [3]: Significant upregulation
- PDE4B mRNA expression, fold change over vehicle [4]: 3.9 fold
- PDE4D mRNA expression, fold change over vehicle [5]: 7.9 fold
- bulk PDE activity vs vehicle [6]: significantly increased PDE activity

SMILES: COc1ccc(C2CNC(=O)C2)cc1OC1CCCC1 (stereo not drawn) [rolipram]
- leftward shift of PGE2 concentration-response curve (reversal of desensitization) by PDE inhibitor [1, 9]: 2.8 fold
- effect on isoproterenol cAMP responses ([1]; 10 μM rolipram, cells pretreated with 100 nM PGE2 for 24 h, Fig. 7d): had no effect

SMILES: CCCCC[C@H](O)/C=C/[C@H]1[C@H](O)CC(=O)[C@@H]1C/C=C\CCCC(=O)O [PGE2, prostaglandin E2]
- desensitization of β-AR (isoproterenol) cAMP responses by pretreatment ([1]; Fig. 2b): does not cause desensitization
- rightward shift of PGE2 responses induced by pretreatment [1]: 8.0 ± 2.2 fold
- EC50 ([1]; acute PGE2 cAMP response, 24 h vehicle pretreatment, Table 1/Fig. 1c, mean ± SEM n = 3–10): 39.8 nM
- EC50 [1, 10]: 3.31 nM
- PGE2 maximal response ([1]; PGE2-pretreated cells (100 nM, 24 h)): 0.60 ± 0.09
- Emax ([1]; PGE2 response after 24 h pretreatment with 1, 10 or 100 nM PGE2 vs vehicle): None of the pretreatment conditions produced a significant reduction
- PGE2 maximal response ([1]; vehicle-pretreated cells): 1.06 ± 0.10
- basal cAMP level [7]: 57.9 ± 13.8 fmol/mg protein
- PDE3A mRNA expression, fold change over vehicle [2]: 7.3 fold
- PDE3B mRNA expression [3]: Significant upregulation
- PDE4B mRNA expression, fold change over vehicle [4]: 2.6 fold
- PDE4D mRNA expression, fold change over vehicle [5]: 22.3 fold
- EP2R mRNA levels [8]: did not observe any change
- bulk PDE activity vs vehicle [6]: significantly increased PDE activity
- bulk PDE activity vs vehicle, time course ([6]; cells treated with 100 nM PGE2 from 5 min to 24 h, after 6 h or more): significant increases

SMILES: C=CCC1([C@@H](O)C/C=C/[C@@H]2[C@@H](C/C=C\CCCC(=O)O)[C@H](Cl)C[C@H]2O)CCC1 [ONO-AE1–259]
- rightward shift of PGE2 responses induced by pretreatment [1]: 4.0 ± 1.2 fold and 4 fold
- log EC50 [1, 10]: −8.29

SMILES: O=C(Nc1c(Cl)cncc1Cl)c1ccc(OC(F)F)c(OCC2CC2)c1 [roflumilast]
- PDE activity in lysates in presence of inhibitor [6]: significantly reduced PDE activity

SMILES: CC(C)Cn1c(=O)n(C)c(=O)c2[nH]cnc21 [IBMX, 3-isobutyl-1-methylxanthine]
- leftward shift of PGE2 concentration-response curve (reversal of desensitization) by PDE inhibitor [1, 9]: small leftward shift that was not statistically significant
- PDE activity in lysates in presence of inhibitor [6]: significantly reduced PDE activity
